Data reported in paper PMC3367910 (PLoS ONE, 2012).

What follows are compounds tested on T1, chlorpyrifos hydrolase (CPH).
T1 construct: native enzyme purified from mycelial cell extract; N-terminal MEPDGELSALTQGANS; gene not cloned
Assay type: biochemical, Cladosporium cladosporioides
For `COP(=S)(OC)Oc1ccc([N+](=O)[O-])cc1` [Methyl parathion], the Km was 12.5 ± 1.4 µM. `CCOP(=S)(OCC)Oc1nc(Cl)c(Cl)cc1Cl` [Chlorpyrifos, O, O-diethyl O-(3,5,6-trichloro-2-pyridyl) phosphorothioate] gave a Km of 6.8 ± 0.4 µM. For `CCOP(=S)(OCC)Oc1ccc([N+](=O)[O-])cc1` [Parathion], the Km was 9.8 ± 0.3 µM. Work on `CCOC(=O)CC(SP(=S)(OC)OC)C(=O)OCC` (centres unmarked) [Malathion] yielded a Km of 44.4 ± 2.1 µM. `COP(N)(=O)SC` (centres unmarked) [Methamidophos] was tested, and the Km was 31.8 ± 1.7 µM.
